From patent US20250171438A1 (Agios Pharmaceuticals, Inc., priority 2022, published 2025)

molecular target: T1, human PAH with the R408W mutation (Homo sapiens, UniProt P00439, R408W); assay: Cell Based Phenylalanine Flux Assay; settings: A375 cells expressing human R408W PAH; 24 hrs compound incubation; 13C-Tyrosine by LC-MS; average where tested multiple times; read-out: AC50
T1 construct: expressed in transfected cells
T1 sequence (P00439 1-452 R408W): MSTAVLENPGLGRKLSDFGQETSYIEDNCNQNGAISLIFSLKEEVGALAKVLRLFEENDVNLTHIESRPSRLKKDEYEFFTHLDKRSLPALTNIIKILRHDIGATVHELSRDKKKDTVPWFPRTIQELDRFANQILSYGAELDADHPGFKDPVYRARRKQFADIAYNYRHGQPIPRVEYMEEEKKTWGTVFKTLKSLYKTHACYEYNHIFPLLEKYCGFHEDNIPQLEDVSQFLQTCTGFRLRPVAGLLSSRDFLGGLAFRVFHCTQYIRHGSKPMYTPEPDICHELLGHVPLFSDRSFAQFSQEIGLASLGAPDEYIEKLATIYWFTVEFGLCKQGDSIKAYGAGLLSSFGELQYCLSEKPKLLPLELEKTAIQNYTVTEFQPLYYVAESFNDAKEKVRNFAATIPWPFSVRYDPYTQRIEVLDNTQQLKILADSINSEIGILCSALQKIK

Compared with O=C(c1cnn2ccccc12)N1CCc2[nH]cnc2[C@H]1c1nc2ccccc2[nH]1 [Example 923, (S)-(4-(1H-benzo[d]imidazol-2-yl)-6,7-dihydro-1H-imidazo[4,5-c]pyridin-5(4H)-yl)(pyrazolo[1,5-a]pyridin-3-yl)methanone], O=C(c1cnn2ccc(Br)cc12)N1CCc2[nH]cnc2[C@H]1c1nc2ccccc2[nH]1 [Example 925, (S)-(4-(1H-benzo[d]imidazol-2-yl)-6,7-dihydro-3H-imidazo[4,5-c]pyridin-5(4H)-yl)(5-bromopyrazolo[1,5-a]pyridin-3-yl)methanone] is higher in AC50: 500 to 1000 nM for the first, 1000 to 5000 nM for the second.

O=C(c1cnn2cc(F)ccc12)N1CCc2[nH]cnc2[C@H]1c1nc2ccccc2[nH]1 [Example 924, (S)-(4-(1H-benzo[d]imidazol-2-yl)-6,7-dihydro-1H-imidazo[4,5-c]pyridin-5(4H)-yl)(6-fluoropyrazolo[1,5-a]pyridin-3-yl)methanone] and O=C(c1cnn2ccc(F)cc12)N1CCc2[nH]cnc2[C@H]1c1nc2ccccc2[nH]1 [Example 944, (S)-(4-(1H-benzo[d]imidazol-2-yl)-6,7-dihydro-1H-imidazo[4,5-c]pyridin-5(4H)-yl)(5-fluoropyrazolo[1,5-a]pyridin-3-yl)methanone] fall in the same range of AC50: 500 to 1000 nM for the first, 500 to 1000 nM for the second.

Compared with O=C(c1ccccc1)N1CCc2[nH]cnc2[C@H]1c1nc2ccccc2[nH]1 [Example 928, (S)-(4-(1H-benzo[d]imidazol-2-yl)-1,4,6,7-tetrahydro-5H-imidazo[4,5-c]pyridin-5-yl)(phenyl)methanone], O=C(CC1CC1)N1CCc2[nH]cnc2[C@H]1c1nc2ccccc2[nH]1 [Example 931, (S)-1-(4-(1H-benzo[d]imidazol-2-yl)-6,7-dihydro-1H-imidazo[4,5-c]pyridin-5(4H)-yl)-2-cyclopropylethanone] is lower in AC50: 500 to 1000 nM for the first, less than 500 nM for the second.

O=C(CC1CCCC1)N1CCc2[nH]cnc2[C@H]1c1nc2ccccc2[nH]1 [Example 929, (S)-1-(4-(1H-benzo[d]imidazol-2-yl)-6,7-dihydro-1H-imidazo[4,5-c]pyridin-5(4H)-yl)-2-cyclopentylethanone] and O=C(CC1CC1)N1CCc2[nH]cnc2[C@H]1c1nc2ccc(Br)cc2[nH]1 [Example 945, (S)-1-(4-(6-bromo-1H-benzo[d]imidazol-2-yl)-6,7-dihydro-1H-imidazo[4,5-c]pyridin-5(4H)-yl)-2-cyclopropylethanone] cannot be ordered by AC50: less than 500 nM for the first, less than 500 nM for the second.

Compared with CC(C)(C)CC(=O)N1CCc2[nH]cnc2[C@H]1c1nc2ccccc2[nH]1 [Example 930, (S)-1-(4-(1H-benzo[d]imidazol-2-yl)-6,7-dihydro-1H-imidazo[4,5-c]pyridin-5(4H)-yl)-3,3-dimethylbutan-1-one], CC(C)(C)CCC(=O)N1CCc2[nH]cnc2[C@H]1c1nc2ccc(Br)cc2[nH]1 [Example 942, (S)-1-(4-(6-bromo-1H-benzo[d]imidazol-2-yl)-6,7-dihydro-1H-imidazo[4,5-c]pyridin-5(4H)-yl)-4,4-dimethylpentan-1-one] is higher in AC50: less than 500 nM for the first, 500 to 1000 nM for the second.

First: O=C(c1nccs1)N1CCc2[nH]cnc2[C@@H]1c1nc2ccc(Br)cc2[nH]1 [Example 932, (R)-(4-(6-bromo-1H-benzo[d]imidazol-2-yl)-6,7-dihydro-1H-imidazo[4,5-c]pyridin-5(4H)-yl)(thiazol-2-yl)methanone]
Second: O=C(c1nccs1)N1CCc2[nH]cnc2[C@H]1c1nc2ccc(Br)cc2[nH]1 [Example 933, (S)-(4-(6-bromo-1H-benzo[d]imidazol-2-yl)-6,7-dihydro-1H-imidazo[4,5-c]pyridin-5(4H)-yl)(thiazol-2-yl)methanone]
The AC50 of the first is higher: greater than 5000 nM for the first, 1000 to 5000 nM for the second.

First: O=C(CCC1CC1)N1CCc2[nH]cnc2[C@@H]1c1nc2ccc(Br)cc2[nH]1 [Example 934, (R)-1-(4-(6-bromo-1H-benzo[d]imidazol-2-yl)-6,7-dihydro-1H-imidazo[4,5-c]pyridin-5(4H)-yl)-3-cyclopropylpropan-1-one]
Second: O=C(CCC1CC1)N1CCc2[nH]cnc2[C@H]1c1nc2ccc(Br)cc2[nH]1 [Example 935, (S)-1-(4-(6-bromo-1H-benzo[d]imidazol-2-yl)-6,7-dihydro-1H-imidazo[4,5-c]pyridin-5(4H)-yl)-3-cyclopropylpropan-1-one]
The AC50 of the first is higher: 1000 to 5000 nM for the first, less than 500 nM for the second.

O=C(c1cnn2ccccc12)N1CCc2[nH]cnc2[C@H]1c1nc2ccc(Cl)cc2[nH]1 [Example 936, (S)-(4-(6-chloro-1H-benzo[d]imidazol-2-yl)-6,7-dihydro-1H-imidazo[4,5-c]pyridin-5(4H)-yl)(pyrazolo[1,5-a]pyridin-3-yl)methanone] and O=C(c1cnn2ccccc12)N1CCc2[nH]cnc2[C@@H]1c1nc2ccc(Cl)cc2[nH]1 [Example 937, (R)-(4-(6-chloro-1H-benzo[d]imidazol-2-yl)-6,7-dihydro-1H-imidazo[4,5-c]pyridin-5(4H)-yl)(pyrazolo[1,5-a]pyridin-3-yl)methanone] fall in the same range of AC50: 1000 to 5000 nM for the first, 1000 to 5000 nM for the second.

First: O=C(CCC1CC1)N1CCc2[nH]cnc2[C@@H]1c1nc2ccc(Cl)cc2[nH]1 [Example 938, (R)-1-(4-(6-chloro-1H-benzo[d]imidazol-2-yl)-6,7-dihydro-1H-imidazo[4,5-c]pyridin-5(4H)-yl)-3-cyclopropylpropan-1-one]
Second: O=C(CCC1CC1)N1CCc2[nH]cnc2[C@H]1c1nc2ccc(Cl)cc2[nH]1 [Example 939, (S)-1-(4-(6-chloro-1H-benzo[d]imidazol-2-yl)-6,7-dihydro-1H-imidazo[4,5-c]pyridin-5(4H)-yl)-3-cyclopropylpropan-1-one]
The AC50 of the first is higher: 1000 to 5000 nM for the first, less than 500 nM for the second.

First: O=C(c1cnn2ccccc12)N1CCc2[nH]cnc2[C@H]1c1nc2ccc(Br)cc2[nH]1 [Example 940, (S)-(4-(6-bromo-1H-benzo[d]imidazol-2-yl)-6,7-dihydro-1H-imidazo[4,5-c]pyridin-5(4H)-yl)(pyrazolo[1,5-a]pyridin-3-yl)methanone]
Second: O=C(c1cnn2ccccc12)N1CCc2[nH]cnc2[C@@H]1c1nc2ccc(Br)cc2[nH]1 [Example 941, (R)-(4-(6-bromo-1H-benzo[d]imidazol-2-yl)-6,7-dihydro-1H-imidazo[4,5-c]pyridin-5(4H)-yl)(pyrazolo[1,5-a]pyridin-3-yl)methanone]
The AC50 of the first is lower: 500 to 1000 nM for the first, 1000 to 5000 nM for the second.

Compared with CC(C)(C)CCC(=O)N1CCc2[nH]cnc2[C@@H]1c1nc2ccc(Br)cc2[nH]1 [Example 943, (R)-1-(4-(6-bromo-1H-benzo[d]imidazol-2-yl)-6,7-dihydro-1H-imidazo[4,5-c]pyridin-5(4H)-yl)-4,4-dimethylpentan-1-one], O=C(CC1CC1)N1CCc2[nH]cnc2[C@@H]1c1nc2ccc(Br)cc2[nH]1 [Example 946, (R)-1-(4-(6-bromo-1H-benzo[d]imidazol-2-yl)-6,7-dihydro-1H-imidazo[4,5-c]pyridin-5(4H)-yl)-2-cyclopropylethanone] is lower in AC50: 1000 to 5000 nM for the first, 500 to 1000 nM for the second.

First: O=C(c1cncs1)N1CCc2[nH]cnc2[C@H]1c1nc2ccc(Br)cc2[nH]1 [Example 947, (S)-(4-(6-bromo-1H-benzo[d]imidazol-2-yl)-6,7-dihydro-1H-imidazo[4,5-c]pyridin-5(4H)-yl)(thiazol-5-yl)methanone]
Second: O=C(c1cncs1)N1CCc2[nH]cnc2[C@@H]1c1nc2ccc(Br)cc2[nH]1 [Example 948, (R)-(4-(6-bromo-1H-benzo[d]imidazol-2-yl)-6,7-dihydro-1H-imidazo[4,5-c]pyridin-5(4H)-yl)(thiazol-5-yl)methanone]
The AC50 of the first is lower: 500 to 1000 nM for the first, 1000 to 5000 nM for the second.

First: O=C(c1nc(Cl)cs1)N1CCc2[nH]cnc2[C@H]1c1nc2ccc(Br)cc2[nH]1 [Example 949, (S)-(4-(6-bromo-1H-benzo[d]imidazol-2-yl)-6,7-dihydro-1H-imidazo[4,5-c]pyridin-5(4H)-yl)(4-chlorothiazol-2-yl)methanone]
Second: O=C(c1nc(Cl)cs1)N1CCc2[nH]cnc2[C@@H]1c1nc2ccc(Br)cc2[nH]1 [Example 950, (R)-(4-(6-bromo-1H-benzo[d]imidazol-2-yl)-6,7-dihydro-1H-imidazo[4,5-c]pyridin-5(4H)-yl)(4-chlorothiazol-2-yl)methanone]
The AC50 of the first is lower: less than 500 nM for the first, 1000 to 5000 nM for the second.

First: O=C(C1CC1)N1CCc2[nH]cnc2[C@@H]1c1nc2ccc(Br)cc2[nH]1 [Example 951, (R)-(4-(6-bromo-1H-benzo[d]imidazol-2-yl)-6,7-dihydro-1H-imidazo[4,5-c]pyridin-5(4H)-yl)(cyclopropyl)methanone]
Second: O=C(C1CC1)N1CCc2[nH]cnc2[C@H]1c1nc2ccc(Br)cc2[nH]1 [Example 952, (S)-(4-(6-bromo-1H-benzo[d]imidazol-2-yl)-6,7-dihydro-1H-imidazo[4,5-c]pyridin-5(4H)-yl)(cyclopropyl)methanone]
The AC50 of the first is higher: greater than 5000 nM for the first, 500 to 1000 nM for the second.

First: O=C(CC1CC1)N1CCc2[nH]cnc2[C@@H]1c1nc2ccc(Cl)cc2[nH]1 [Example 953, (R)-1-(4-(6-chloro-1H-benzo[d]imidazol-2-yl)-6,7-dihydro-1H-imidazo[4,5-c]pyridin-5(4H)-yl)-2-cyclopropylethanone]
Second: O=C(CC1CC1)N1CCc2[nH]cnc2[C@H]1c1nc2ccc(Cl)cc2[nH]1 [Example 954, (S)-1-(4-(6-chloro-1H-benzo[d]imidazol-2-yl)-6,7-dihydro-1H-imidazo[4,5-c]pyridin-5(4H)-yl)-2-cyclopropylethanone]
The AC50 of the first is higher: 1000 to 5000 nM for the first, less than 500 nM for the second.

O=C(c1nc(Cl)cs1)N1CCc2[nH]cnc2[C@H]1c1nc2ccc(Cl)cc2[nH]1 [Example 955, (S)-(4-(6-chloro-1H-benzo[d]imidazol-2-yl)-6,7-dihydro-1H-imidazo[4,5-c]pyridin-5(4H)-yl)(4-chlorothiazol-2-yl)methanone] gave an AC50 of 500 to 1000 nM.
